Earlier results, collected in paper PMC8597174 (Clinical Pharmacology in Drug Development, 2021).

## salmon calcitonin
  Effect of dosing after meal intake on maximum concentration and AUC: significant reduction in maximum concentration and AUC
